In patent publication US20050165224A1, “Inhibition of penicillin resistance in s. pneumoniae” (priority 2000, published 2005):
Values after ≈ are worked out from the molar mass of the structure shown.

Assays:
Experiment in all cases: Penicillin MIC (E-test / population analysis)
Type in all cases: cell-based
[1] = system: S. pneumoniae Hun663Tr4Tr5, disrupted murMN operon; settings: Streptococcus pneumoniae, strain Hun663Tr4Tr5 (transformant)
[2] = system: S. pneumoniae Sp2150, intact murMN operon; settings: Streptococcus pneumoniae, strain Sp2150 (serotype 9/14, French/Spanish)
Description: (§1) Transformation, population analysis profiles and determination of penicillin resistance level S. pneumoniae R36A and Pen6 were transformed essentially according to published procedures (8). To induce competence, synthetic CSPα was added to the medium at a concentration of 250 ng/ml. The competent cells were then incubated for 30 min at 30° C. in the presence of plasmidic DNA followed by the addition of 2 ml of C+Y medium and a 2 h incubation at 37° C. Transformants were selected on blood agar plates (TSA+3% (v/v) sheep blood) containing 1 μg/ml erythromycin. Population analysis profiles (PAPs) were determined by plating serial dilutions of early stationary phase cultures on plates of TSA containing 5% (v/v) of sheep blood (Micropure Medical Inc, White Bear Lake, Minn.), and different concentrations of Penicillin G (Sigma) (0, 0.01, 0.03, 0.06, 0.125, 0.25, 0.5, 1, 2, 4, 8, 16 ([…]). The PAPs were done with and without the presence of […] erythromycin in the medium. Plates were incubated at 37° C. in a 5% CO2-in-air atmosphere for 24 h and the number of bacteria capable of forming colonies in the presence of various penicillin concentrations was plotted against the concentration of penicillin in the agar medium. Penicillin resistance levels (minimal inhibitory concentration, MIC) were determined by the E-test following the manufacturers guidelines (AB Bidosk, Sweden).

[3] = system: S. pneumoniae 8249, intact murMN operon; settings: Streptococcus pneumoniae, strain 8249 (serotype 19A, South African)
Description: as §1

[4] = system: S. pneumoniae Clev2, intact murMN operon; settings: Streptococcus pneumoniae, read-out: Penicillin MIC
Description: as §1

[5] = system: S. pneumoniae Hun663, intact murMN operon; settings: Streptococcus pneumoniae, read-out: Penicillin MIC
Description: as §1

[6] = system: S. pneumoniae R36A, intact murMN operon; settings: Streptococcus pneumoniae, strain R36A (laboratory strain)
Description: as §1

[7] = system: S. pneumoniae Pen6, intact murMN operon; settings: Streptococcus pneumoniae, read-out: Penicillin MIC
Description: as §1

[8] = system: S. pneumoniae Ala1, intact murMN operon; settings: Streptococcus pneumoniae, strain Ala1 (serotype 6B, Alaskan)
Description: as §1

[9] = system: S. pneumoniae R36A, disrupted murMN operon; settings: Streptococcus pneumoniae, strain R36A (laboratory strain)
Description: (§2) Inactivation of the murMN operon. For gene disruption experiments, internal fragments of murM, from the bacterial strains R36A and Pen6, were amplified by PCR and cloned into pJDC9 (9). For amplification of the internal fragment of murM from R36A the following primers were used 5′-[…]-3′ (SEQ ID NO: 26) and 5′-[…]-3′ (SEQ ID NO: 27) giving origin to the plasmid pZOO5. Amplification of the internal fragment of murM from Pen6 was carried out using the primers 5′-[…]-3′ (SEQ ID NO:28) and 5′-[…]-3′ (SEQ ID NO: 29) giving origin to the plasmid pZOO6. For inactivation of the murMN operon in R36A and in Pen6, competent cells of R36A and Pen6 were transformed respectively with plasmids pZOO5 and pZOO6 (FIG. 1B).
(§3) Transformation, population analysis profiles and determination of penicillin resistance level S. pneumoniae R36A and Pen6 were transformed essentially according to published procedures (8). To induce competence, synthetic CSPα was added to the medium at a concentration of 250 ng/ml. The competent cells were then incubated for 30 min at 30° C. in the presence of plasmidic DNA followed by the addition of 2 ml of C+Y medium and a 2 h incubation at 37° C. […] Penicillin resistance levels (minimal inhibitory concentration, MIC) were determined by the E-test following the manufacturers guidelines (AB Bidosk, Sweden).

[10] = system: S. pneumoniae Pen6, disrupted murMN operon; settings: Streptococcus pneumoniae, strain Pen6 (transformant)
Description: as §2, §3

[11] = system: S. pneumoniae Ala1, disrupted murMN operon; settings: Streptococcus pneumoniae, strain Ala1 (serotype 6B, Alaskan)
[12] = system: S. pneumoniae Sp2150, disrupted murMN operon; settings: Streptococcus pneumoniae, strain Sp2150 (serotype 9/14, French/Spanish)
[13] = system: S. pneumoniae Clev2, disrupted murMN operon; settings: Streptococcus pneumoniae, strain Clev2 (serotype 23F, Spanish/USA)

Question: What does the source list for `CC1(C)S[C@@H]2[C@H](NC(=O)Cc3ccccc3)C(=O)N2[C@H]1C(=O)O` [Penicillin, Penicillin G]?
Answer: MIC [1]: 0.032 µg/mL (≈ 0.0957 µM); MIC [2]: 1 µg/mL (≈ 2.99 µM); MIC [3]: 6 µg/mL (≈ 17.9 µM); MIC [4]: 1.6 µg/mL (≈ 4.78 µM); MIC [5]: 1.6 µg/mL (≈ 4.78 µM); MIC [6]: 0.023 µg/mL (≈ 0.0688 µM); MIC [7]: 6 µg/mL (≈ 17.9 µM); MIC [8]: 0.12 µg/mL (≈ 0.359 µM); MIC [9]: 0.023 µg/mL (≈ 0.0688 µM); MIC [10]: 0.032 µg/mL (≈ 0.0957 µM); MIC [11]: 0.064 µg/mL (≈ 0.191 µM); MIC [12]: 0.032 µg/mL (≈ 0.0957 µM); MIC [13]: 0.016 µg/mL (≈ 0.0478 µM)
